Experimental findings from paper PMC7919409, “Crystal structures of adenylylated and unadenylylated PII protein GlnK from Corynebacterium glutamicum” (Acta Crystallographica. Section D, Structural Biology, 2021) are described below.

Molecules are shown by their SMILES.

The experiment addresses T1, adGlnK (adenylylated GlnK) (Corynebacterium glutamicum, UniProt H7C694).
T1 construct: gene glnB; full length, untagged (stop codon inserted before Xa-Strep tag), produced in C. glutamicum; Tyr51 O-adenylylated (AMP covalently attached); homotrimer, hexamer in crystal; 112 residues
The experiment in a line: X-ray crystal structure, […] A. The format is binding. As to conditions: fortuitously bound, co-purified (no nucleotide added), one of six effector sites at subunit interface, Tyr51 adenylylated, Mg, Ca, pH 7.1, 292 K.

T1 sequence (H7C694 entry or part of it): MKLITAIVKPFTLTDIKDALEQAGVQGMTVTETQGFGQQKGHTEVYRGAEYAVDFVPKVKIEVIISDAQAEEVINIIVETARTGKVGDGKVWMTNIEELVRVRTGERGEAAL

Consider `Nc1ncnc2c1ncn2[C@@H]1O[C@H](COP(=O)(O)O)[C@@H](O)[C@H]1O` [AMP], for which the “X-ray crystal structure, 1.8 A” value (non-covalent AMP in ATP-binding pocket, distinct from) is “fortuitous binding of AMP and ADP was observed in the remaining two binding sites”.

Regarding `Nc1ncnc2c1ncn2[C@@H]1O[C@H](COP(=O)(O)OP(=O)(O)O)[C@@H](O)[C@H]1O` [ADP], the “X-ray crystal structure, 1.8 A” value is “fortuitous binding of AMP and ADP was observed in the remaining two binding sites”.
